This is an account of results in article PMC5282547, “The Proline/Arginine Dipeptide from Hexanucleotide Repeat Expanded C9ORF72 Inhibits the Proteasome” (eNeuro, 2017).

Data set [1] concerns motor neurons. Nature of the data set: Motor neuron survival with IU1 co-treatment. Type of data set: cell-based, rat. On the procedure:
Days in vitro (DIV)14 mixed spinal cord cultures were exposed to PR20 or GR20 by addition of synthetic peptide to the media one time. Cultures were fixed 5 d later with freshly prepared 4% paraformaldehyde for 20 min, washed extensively with 0.1 M PBS, pH 7.4, and immunostained with SMI32 to identify motor neurons. […] Motor neurons were counted in three nonoverlapping, randomly selected fields on a coverslip using a 5[times objective, and the values from a single coverslip averaged.
For experiments involving IU1, DIV14 cultures were treated with PR20 or its vehicle, and every other day, IU1 (or vehicle) was added to the culture media to achieve a final concentration of 5 µM. At DIV19, cultures were fixed and motor neuron number determined as described above.

For data set [2], the system named is Dendra2-LC3. Nature of the data set: Autophagic flux assay, optical pulse labeling of Dendra2-LC3. Type of data set: cell-based, rat. On the procedure: (§1) Primary spinal neurons were dissected from E15 rat pups and cultured at a density of 2.5 × 10^5 cells/ml on a laminin/poly-lysine-coated 96-well plate in motor neuron media. Four days after plating, neurons were transfected with Lipofectamine 2000 (Invitrogen). DNA-Lipofectamine mixtures were incubated with neurons for 20 min followed by rinsing. Neurons were then placed in 100 µL of conditioned media that was collected immediately prior to transfection and half fresh motor neuron media containing 4 µM PR20, resulting in a final concentration of 2 µM PR20.
(§2) Optical pulse labeling experiments were performed using an automated microscopy platform previously described by [Arrasate et al. (2004)] and [Barmada et al. (2014)]. A Nikon Eclipse Ti inverted microscope equipped with a PerfectFocus system, 20× objective lens and an Andor iXon3 897 EMCCD camera were used to acquire images. Samples were illuminated with a Sutter Instruments Lamba XL lamp. The microscope and related components were encased in custom-built plexiglass enclosure set to maintain the temperature at 37°C and CO2 at 5%. Semrock GFP and TRITC filters were used for excitation and detection. A Semrock 405-nm long-pass filter was used for photoactivation. Image acquisition and stage movements were accomplished in an automated fashion using µManager and original code written in BeanShell. For all experiments, photoconversion occurred 24 h following transfection. GFP and TRITC images were acquired immediately following activation and subsequently every 2 h for 12 h. Images were acquired in a similar 12-h window starting 48 h after PR20 treatment. Using in-house image analysis scripts, neuronal cell bodies were identified based on their fluorescent intensity and morphology, and a ROI was drawn around the perimeter of each cell at each time. Single-cell TRITC intensity values were recorded and used to fit a first order exponential decay curve for individual neurons and calculate a Dendra2-light chain 3 (LC3) half-life for each cell. […]

In data set [3] the test system is ubiquitin-proteasome system. Nature of the data set: MG-132 flux assay (flux of ubiquitylated substrates through the UPS). Type of data set: cell-based, rat. As to the method: MG-132 (Sigma) was used to inhibit proteasomal function. Cells were initially treated with PR20 for a total of 48 h using the method outlined in PR20 treatment for biochemical assays. Four hours prior to lysis, these cells were treated with MG-132 or vehicle. The MG-132 was kept in a stock solution in DMSO. This was added directly to culture to achieve a final concentration of 5 μM. Cells were then lysed in RIPA buffer and immunoblotted for ubiquitin.
Ubiquitin analysis requires the use of deubiquitinase (DUB) inhibitors. Lysis without these inhibitors runs the risk of degradation of the substrates to be targeted. As such, N-ethylmaleimide (Sigma), a potent DUB inhibitor, was used in the lysis buffer. […] The remainder of the lysis procedure follows Cell lysis.
To test for group differences in the flux assay, a permutation test was used. This is a nonparametric statistical test that was implemented in MATLAB. […] The test first quantifies this by taking the average of each experimental group and then finding the difference of ratios. It then permutes two samples located in two groups randomly, and determines that difference between averages again. This is repeated 50,000 times, and a histogram is plotted. This histogram represents the distribution of random noise in the sample. Since a higher difference in the +MG132/−MG132 ratio is a more “significant” result, the percentage of the random noise produced from 50,000 permutations that is higher in magnitude than the true difference (calculated from un-permuted data) is the p value.
Permutations of a data point in a +MG132 into a group labeled −MG132 (or vice versa) were not allowed. […] Thus, this group difference was not interesting to us.

Data set [4] has as its system Dendra2. Put plainly: Optical pulse labeling of Dendra2. Type of data set: cell-based, rat. The note with it: vehicle 29.6 h. As to the method:
as §1, §2

For data set [5], the system named is motor neurons. Put plainly: Motor neuron survival in mixed spinal cord cultures (SMI32 counts), LD50 determination. Type of data set: cell-based, rat. As to the method: Mixed spinal cord neuron cultures were prepared as described previously ([Mojsilovic-Petrovic et al., 2006]). Briefly, an astrocyte feeder layer was prepared from the cortex of newborn Sprague Dawley rat pups [postnatal day 2 (P2)] and grown to ∼80% confluency. Subsequently, dissociated embryonic day 15 (E15) spinal cord neurons were added. One to two days later, AraC ([…]) (catalog #C6645; Sigma) was added for 24 h to arrest astrocyte proliferation. Cultures were maintained in glia-conditioned medium supplemented with the following trophic factors (1.0 ng/ml each): human neurotrophin-3, human neurotrophin-4, human brain-derived neurotrophic factor, and rat ciliary neurotrophic factor (Alomone Labs). Half of the culture medium was replaced on a biweekly basis.
Days in vitro (DIV)14 mixed spinal cord cultures were exposed to PR20 or GR20 by addition of synthetic peptide to the media one time. Cultures were fixed 5 d later with freshly prepared 4% paraformaldehyde for 20 min, washed extensively with 0.1 M PBS, pH 7.4, and immunostained with SMI32 to identify motor neurons. Immunopositive cells >25 µm in diameter are motor neurons based on their costaining for peripherin, ChAT, and islet 1/2 ([Mojsilovic-Petrovic et al., 2006]). Motor neurons were counted in three nonoverlapping, randomly selected fields on a coverslip using a 5[times objective, and the values from a single coverslip averaged. The results of 3-5 independently treated coverslips were the basis and means and variance used in statistical analysis. Each experiment was repeated with independently generated culture 4+ times ([Mojsilovic-Petrovic et al., 2006]).
Motor neuron survival 5 d later was determined. Once the approximate LD50 was determined, we repeated the analysis with more closely spaced concentrations for a more precise definition of the LD50. Determination of the LD50 of MG132 was accomplished in an identical manner.

Data set [6] has as its system mixed spinal cord cultures. Put plainly: Cellular accumulation and disposal of HA-tagged DPR (immunoblot of cell lysates, continuous exposure or 2-h pulse-chase). Background: Immunoblotting shows a protein as a band on a membrane.
Experimental: Confluent dishes of astrocyte neuron cocultures at 37°C had volumes equalized to 2 ml of cell culture media each. Approximately 300 μl of media from each dish was removed and pooled with other dishes, PR20 stock solution was added, and the mixture was then added back to the corresponding culture dish, so that each dish contained a final concentration of 2 μM. All plates were incubated with PR20 for 48 h.
Lysis buffer was prepared containing 1% (v/v) protease inhibitor cocktail, 1% (v/v) PMSF, and 1% (v/v) leucine in 1% RIPA buffer solution on ice. Culture dishes were washed once with ice-cold PBS to remove any remaining media. A total of 125 μl (35-mm dish), 150 μl (6-well plate), or 250 μL (60-mm dish) of lysis buffer was added to each plate, and cells were scraped into a cold 1.5-ml tube. Samples were sonicated for 30 s at 20% intensity, placed on a rotator at 4°C for 20 min, and then centrifuged for 15 min at 13,200 rpm. Supernatant was then removed from each tube for further analysis.
We investigated the fate of PR20 in mixed spinal cord cultures through immunoblotting and immunocytochemistry. […] To gain further insight into the kinetics of the observed decrease in PR20 levels in cell lysates over time, we pulsed cells with 2 µM PR20 for 2 h, washed, replaced with fresh media (lacking PR20), and made cell lysates at regular intervals thereafter. […] To more easily follow GR20 by immunoblotting, we applied 10 µM GR20 to cultures and performed the same kinetic analysis as described in Figure 1D.
The subject of data set [7] is U2OS cells and human astrocytes. The note with it: cited from earlier work. From the text:
The difficulty of distinguishing between toxic HRE mRNA and DPR proteins has impeded our understanding of the mechanism underlying C9ORF72 HRE pathophysiology. As reported in Science ([Kwon et al., 2014]), the McKnight lab devised a strategy to overcome this problem: they studied U2OS cells and human astrocytes directly exposed to synthetic DPR proteins. […] We built upon this approa ...

The mark [8] stands for this setting: 10 µM in media, continuous exposure.

“Also recorded” adds a separate entry of the source. Where a SMILES comes first, the peptide text is derived from it. The star is where a group is joined. Cbz = O=C(OCc1ccccc1)*

As to `Cc1cc(C(=O)CN2CCCC2)c(C)n1-c1ccc(F)cc1` [IU1], the “effect of IU1 on MG132-induced reduction in motor neuron number” value in data set [1] (5 µM IU1, 150 nM MG132, 5 d) is “reversed”. Moreover, the “effect of IU1 on PR20-induced motor neuron death” value in data set [1] (5 µM IU1 every other day with PR20, 5 d, p < 0.05) is listed as “blocks the toxic effects; also recorded: rescued to control levels; also recorded: prevents this effect”. Besides, the “effect of IU1 alone on motor neuron survival” value in data set [1] (5 µM IU1 every other day, vehicle-treated cells, 5 d) is “not toxic; also recorded: did not influence the survival”.

Consider `CC(C)C[C@@H](C=O)NC(=O)[C@H](CC(C)C)NC(=O)[C@H](CC(C)C)NC(=O)OCc1ccccc1` [MG132, reference compound] (Cbz-Leu-Leu-Leu-aldehyde), for which the “extension of Dendra2-LC3 half-life compared with control” value in data set [2] (10 µM MG132, primary spinal neurons) is on record as 11.9 h. In data set [3] (150 nM MG132 48 h, then 5 µM MG132 or vehicle 4 h, n = 6, p = 0.027), the “proteasomal flux versus control” value was “statistically significant reduction”. For the same compound, the Dendra2 half-life in data set [4] (MG132 (10 µM), p = 3.23 × 10^−5) was 32.3 h. The “LD50, motor neuron number” value in data set [5] (added one time to mixed spinal cord cultures, counted 5 d later) was in the range of 100 to 150 nM. Moreover, the “motor neuron number compared with all other experimental groups” value in data set [1] (150 nM MG132, 5 d, p = 0.001) is “statistically significantly fewer motor neurons”.

Regarding “GR20: synthetic, HA-tagged dipeptide repeat protein: glycine/arginine repeated 20 times”, in data set [6] (setting [8]), the “period of maximal accumulation in cells” value is “first hour” and the “time point at which immunoblot signal is undetectable” value stood at 24 h. Moreover, the “earliest detection in cell lysates” value in data set [6] (10 µM in media, continuous exposure, anti-HA immunoblot) was determined as 15 min. In data set [6] (2-h pulse-chase, 10 µM), the “lysate fractions with detectable Western blot signal at the 2-h time point” value is given as “soluble fraction only” and the “time point by which signal diminishes to a barely detectable level” value came to 4 h. Besides, in data set [6] (immunoblot of mixed spinal cord culture lysates), the “half-life of dipeptide in cells” value was “on the orders of hours”. Besides, the “detectability by immunoblotting in lysates” value in data set [6] (single 2-h application of 2 µM) was “weakly detectable”. Moreover, in data set [7], the toxic concentration range is 10 to 30 µM. Also, in data set [2] (2 µM peptide, primary spinal neurons, single-cell optical pulse labeling), the “extension of Dendra2-LC3 half-life compared with control” value was determined as 1.5 h. Moreover, the “proteasomal flux (difference in ubiquitin +/- MG-132) versus vehicle” value in data set [3] (peptide 48 h (PR20 2 µM), then MG-132 5 µM or vehicle 4 h, permutation test) was “neither influenced total ubiquitin levels nor proteasomal flux”. This compound also gave a Dendra2 half-life in data set [4] (2 µM peptide, not significantly different from vehicle) of 31.0 h. Also, the “toxicity to motor neurons at ∼20 times higher concentration than PR20” value in data set [5] (5 d) is reported as “not toxic”.
